# Legend:
# FesR [1] = molecular target: T1, FesR (Alishewanella sp. WH16-1, UniProt A0A0T5PLD3); assay: residual Cr(VI) by diphenylcarbazide colorimetry; assay type: biochemical; conditions: 1 mmol/L NADPH, pH 7.0, 50 °C, Tris-HCl, 10 min, no added FAD
# T1 construct: Full-length, no signal peptide predicted, GST-tagged (pGEX-6p-1), eluted with glutathione, expressed in E. coli BL21(DE3); predicted 127 kDa with tag; FAD domain 16-520, two 4Fe-4S clusters 525-625
# FesR [2] = molecular target: T2, FesR (Alishewanella sp. WH16-1, UniProt A0A0T5PLD3, R385A); assay: enhancement of Cr(VI) and Se(IV) reduction by added FAD; assay type: biochemical; conditions: […] FAD, […] NADPH, […] K2CrO4 or Na2SeO3, optimum pH and temperature (pH […] °C)
# T2 construct: gene AAY72_06850; Full-length, no signal peptide predicted, GST-tagged (pGEX-6p-1), eluted with glutathione, expressed in E. coli BL21(DE3); predicted 127 kDa with tag; FAD domain 16-520, two 4Fe-4S clusters 525-625
# T2 sequence (A0A0T5PLD3 1-919 R385A): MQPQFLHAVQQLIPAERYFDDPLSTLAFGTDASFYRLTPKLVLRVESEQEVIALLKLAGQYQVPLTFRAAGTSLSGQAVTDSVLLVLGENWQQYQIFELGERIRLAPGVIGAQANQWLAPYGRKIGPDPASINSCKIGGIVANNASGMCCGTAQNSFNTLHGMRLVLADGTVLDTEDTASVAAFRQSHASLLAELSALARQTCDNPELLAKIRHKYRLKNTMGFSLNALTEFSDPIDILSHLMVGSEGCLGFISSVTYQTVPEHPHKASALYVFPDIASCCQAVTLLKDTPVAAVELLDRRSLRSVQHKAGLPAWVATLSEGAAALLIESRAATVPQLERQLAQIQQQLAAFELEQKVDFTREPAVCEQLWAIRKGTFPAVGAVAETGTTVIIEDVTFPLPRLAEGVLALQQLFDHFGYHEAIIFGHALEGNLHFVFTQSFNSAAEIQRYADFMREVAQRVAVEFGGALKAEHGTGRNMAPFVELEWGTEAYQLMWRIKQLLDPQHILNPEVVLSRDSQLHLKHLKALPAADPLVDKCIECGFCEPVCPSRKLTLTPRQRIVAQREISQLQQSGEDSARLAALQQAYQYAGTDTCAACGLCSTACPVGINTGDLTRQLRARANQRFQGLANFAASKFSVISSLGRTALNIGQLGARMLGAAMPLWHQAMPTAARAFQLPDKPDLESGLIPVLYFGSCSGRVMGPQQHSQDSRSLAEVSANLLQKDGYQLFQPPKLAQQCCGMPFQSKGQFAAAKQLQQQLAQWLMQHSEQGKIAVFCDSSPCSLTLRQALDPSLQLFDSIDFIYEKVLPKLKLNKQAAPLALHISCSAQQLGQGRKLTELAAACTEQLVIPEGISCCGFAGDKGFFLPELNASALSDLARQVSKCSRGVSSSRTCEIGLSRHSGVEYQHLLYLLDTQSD
# O=[Se](O)O = assay: purified protein; conditions: 1 mmol/L NADPH, pH 7.0, 50 °C, Tris-HCl, 10 min, no added FAD
molecule,measurement,setting,value
[O]=[Cr](=[O])([OH])[OH] [Cr(VI)],Km,FesR [1],1680 ± 126 µM
Cc1cc2nc3c(=O)[nH]c(=O)nc-3n(C[C@H](O)[C@H](O)[C@H](O)COP(=O)(O)OP(=O)(O)OC[C@H]3O[C@@H](n4cnc5c(N)ncnc54)[C@H](O)[C@@H]3O)c2cc1C [FAD],enhancement of Cr(VI) and Se(IV) reduction by added FAD,FesR [2],FAD couldn’t enhance the enzyme activity of FesR when the predicted FAD-binding residue Arg385 was mutated
FesR (Alishewanella sp. WH16-1),Km,O=[Se](O)O,1164.0 ± 89.4 µM

# Reference: publication PMC8957926, “Identification of a Novel Chromate and Selenite Reductase FesR in Alishewanella sp. WH16-1” (Frontiers in Microbiology, 2022)
